The source of these data is patent publication US5098935A, “Carcinostatic or antitumor antibiotic, conagenin, and production and uses thereof” (Zaidan Hojin Biseibutsu Kagaku Kenkyu Kai, priority 1989, dated 1992).

Series [1] is described as follows: Solubility. The class given is physicochemical.
The nature of series [2]: Acute toxicity (LD50), intraperitoneal administration to female ICR mice. The settings on record: mouse, in vivo. As to the method:
Toxicity of Conagenin was tested by intraperitoneal administration to female ICR mice and estimated as its LD50 being higher than 50 mg/Kg.

The nature of series [3]: Acidic nature. The class given is physicochemical.
In series [4] the test system is Ehrlich's solid carcinoma. Nature of the series: Inhibitory activity on Ehrlich's solid carcinoma in mice. Type of series: in vivo, mice (ICR, female). The settings on record: for Percent inhibition (decrease in weight of solid carcinoma vs untreated control): once a day for 7 days from 7th day, weighed on 15th day. As to the method:
(2) Inhibitory activity on Ehrlich's solid carcinoma in mice ICR mice (female, 6 weeks-aged, 4 mice in each group) were inoculated with Ehrlich's ascites carcinoma cells (2×10^6 per mouse in the form of a cell suspension) subcutaneously at the groin of the mice. After the 7th day from the inoculation of the carcinoma cells, an injectable solution of Conagenin was intraperitoneally injected into the carcinoma-bearing mice at a dosage of 6.25, 3.1, 1.56, 0.78, 0.39 and 0.195 mg/Kg once a day during the consecutive 7 days for each group of mice. On the 15th day from the inoculation of the carcinoma cells, the solid carcinoma so grown was cut off and the weight of the solid carcinoma was determined. Control test was conducted using 8 mice of the same type as above in a usual manner. Percent inhibition of the proliferation of the solid carcinoma, i.e. the percent decrease in the weight of the solid carcinoma in each treated group of mice administered with Conagenin as compared to that in the control group of mice (untreated), is callculated and shown in Table 3 below.

For series [5], the system named is Leukemia L1210 cells. As to the kind of experiment: Effect on the surface of carcinoma cell membrane: binding of radiolabelled Concanavalin A to Leukemia L1210 cells. The class given is cell-based. As to the method: Each of the resulting suspensions was incubated in a CO2 -incubator (CO2 concentration:5%) at 37° C. for 2 days. A radioisotope-labelled Concanavalin A (Concanavalin A N-[acetyl-^3 H] acetylated; a product of Amersham Co., Ltd.) in an amount of 40 nCi/ml was added to the suspension under incubation at a time of one hour before the end of the incubation. The incubated cells were fixed on a filter paper by a cell harvester and the radioactivity value of the cells so fixed was measured by a liquid scintillation counter. The respective values thus given were converted assumed that the radioactivity value of the control group sample was amounting to 100, and the converted values are shown in Table 4 as the increase in binding of Concanavalin A to L1210 cells.

Entries after “also recorded” stand apart in the source; their conditions may differ.

Usually LD50 stands for the dose at which mortality reaches 50%. A lower LD50 goes with greater toxicity. On to `CC(O)C(C)C(O)C(=O)NC(C)(CO)C(=O)O` (centres unmarked) [Conagenin], for which the Solubility in chloroform result in series [1] (chloroform) is given as “insoluble; also recorded: sparingly soluble”. Besides, in series [1] (methanol), the Solubility in methanol result is “readily soluble; also recorded: Easily soluble”. The Solubility in water result in series [1] (water) is “soluble in water”. For the same compound, the “toxicity (in words)” value in series [2] was “low toxicity”. The compound further came in with an LD50 in series [2] (ip, intraperitoneal, female ICR mice) greater than 50 mg/kg. In addition, in series [3], the “acidity (in words)” value is “weakly acidic”. Also, the “Percent inhibition (decrease in weight of solid carcinoma vs untreated control)” value was determined as 44% in series [4] (0.195 mg/Kg/day i.p.); 29% in series [4] (0.39 mg/Kg/day i.p.); 58% in series [4] (0.78 mg/Kg/day i.p.); 44% in series [4] (1.56 mg/Kg/day i.p.); 67% in series [4] (3.1 mg/Kg/day i.p.); 45% in series [4] (6.25 mg/Kg/day i.p.). Also, the “carcinostatic or antitumor activity in vivo (in words)” value in series [4] (Ehrlich's solid carcinoma in mice) is reported as “significant carcinostatic or antitimor activity; also recorded: significant carcinostatic or antitumor activity in vivo”. In series [5], the “binding of Concanavalin A to L1210 cells (in words)” value was “could increase the binding of Concanavalin A to L1210 cells”. Besides, the activity at 0.25 µg/mL in series [5] (Mus musculus, L1210, 48 h, 0.25 μg/ml, 37° C., 2 days, control group = 100, read-out: Increase in binding of Concanavalin A) was less than 100%. For the same compound, the activity at 0.5 µg/mL in series [5] (Mus musculus, L1210, 48 h, 0.5 μg/ml, 37° C., 2 days, control group = 100, read-out: Increase in binding of Concanavalin A) was found to be 129%. Besides, the activity at 1 µg/mL in series [5] (Mus musculus, L1210, 48 h, 1.0 μg/ml, 37° C., 2 days, control group = 100, read-out: Increase in binding of Concanavalin A) was determined as 121%.
